Measurements as given in ChEMBL document CHEMBL1201862, “PubChem BioAssay data set” (2004).
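Briefly, cells in 96-well plates were exposed to five compound concentrations for 48 h, and endpoints were estimated by linear interpolation. Abbreviation: GI50, concentration required for 50% inhibition of growth.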 Activity calls are given as the source filed them. Rule as the data show it: active = GI50 up to about 1.1 µM and inactive = higher.

Columns and labels:
Assay in all cases: NCI anticancer screen, dose series, 48 h
MDA-MB-435 = tested on: MDA-MB-435
TK-10 = tested on: TK-10
IGROV-1 = tested on: IGROV-1
HCT-15 = tested on: HCT-15
DU-145 = tested on: DU-145
CAKI-1 = tested on: CAKI-1
MDA-N = tested on: MDA-N
SR = tested on: SR
SW-620 = tested on: SW-620
SK-MEL-5 = tested on: SK-MEL-5
HCC 2998 = tested on: HCC 2998
NCI-H23 = tested on: NCI-H23
MCF7 = tested on: MCF7
SNB-19 = tested on: SNB-19
786-0 = tested on: 786-0
K562 = tested on: K562
A549 = tested on: A549
UACC-62 = tested on: UACC-62
PC-3 = tested on: PC-3
SF-268 = tested on: SF-268
EKVX = tested on: EKVX
M14 = tested on: M14
NCI-H522 = tested on: NCI-H522
Hs-578T = tested on: Hs-578T
SF-539 = tested on: SF-539
Malme-3M = tested on: Malme-3M
HOP-62 = tested on: HOP-62
CCRF-CEM = tested on: CCRF-CEM
UO-31 = tested on: UO-31
ACHN = tested on: ACHN
BT-549 = tested on: BT-549
COLO 205 = tested on: COLO 205
A498 = tested on: A498
NCI-H460 = tested on: NCI-H460
KM12 = tested on: KM12
SNB-75 = tested on: SNB-75
HL-60 = tested on: HL-60
NCI-H226 = tested on: NCI-H226
MDA-MB-231 = tested on: MDA-MB-231
OVCAR-8 = tested on: OVCAR-8
LOX IMVI = tested on: LOX IMVI
SN12C = tested on: SN12C
SK-MEL-28 = tested on: SK-MEL-28
T47D = tested on: T47D
SF-295 = tested on: SF-295
HCT-116 = tested on: HCT-116
SK-OV-3 = tested on: SK-OV-3
MOLT-4 = tested on: MOLT-4
RPMI-8226 = tested on: RPMI-8226
HT-29 = tested on: HT-29
UACC-257 = tested on: UACC-257
OVCAR-4 = tested on: OVCAR-4
OVCAR-3 = tested on: OVCAR-3
RXF 393 = tested on: RXF 393
NCI/ADR-RES = tested on: NCI/ADR-RES
OVCAR-5 = tested on: OVCAR-5
U-251 = tested on: U-251

For O=P(c1ccccc1)(c1ccccc1)c1ccc2c(c1)OCCOCCOCCOCCO2, the GI50 (MDA-MB-435) was > 100 µM (inactive), the GI50 (TK-10) was > 100 µM (inactive) and the GI50 (IGROV-1) was > 100 µM (inactive). The GI50 (HCT-15) was > 100 µM, the GI50 (DU-145) was > 100 µM (inactive) and the GI50 (CAKI-1) was > 100 µM (inactive). The GI50 (MDA-N) was > 100 µM (inactive), the GI50 (SR) was > 100 µM (inactive) and the GI50 (SW-620) was > 100 µM (inactive). The GI50 (SK-MEL-5) was > 100 µM (inactive), the GI50 (HCC 2998) was > 100 µM (inactive) and the GI50 (NCI-H23) was > 100 µM (inactive). The GI50 (MCF7) was > 100 µM (inactive), the GI50 (SNB-19) was > 100 µM (inactive) and the GI50 (786-0) was > 100 µM (inactive). For the same compound, the GI50 (K562) was > 100 µM (inactive), the GI50 (A549) was > 100 µM (inactive) and the GI50 (UACC-62) was > 100 µM (inactive). The GI50 (PC-3) was > 100 µM (inactive), the GI50 (SF-268) was > 100 µM (inactive) and the GI50 (EKVX) was > 100 µM (inactive). For the same compound, the GI50 (M14) was > 100 µM (inactive), the GI50 (NCI-H522) was > 100 µM (inactive) and the GI50 (Hs-578T) was > 100 µM (inactive). The GI50 (SF-539) was > 100 µM (inactive), the GI50 (Malme-3M) was > 100 µM (inactive) and the GI50 (HOP-62) was > 100 µM (inactive). For the same compound, the GI50 (CCRF-CEM) was > 100 µM (inactive), the GI50 (UO-31) was > 100 µM (inactive) and the GI50 (ACHN) was > 100 µM (inactive). The GI50 (BT-549) was > 100 µM (inactive), the GI50 (COLO 205) was > 100 µM (inactive) and the GI50 (A498) was > 100 µM (inactive). For the same compound, the GI50 (NCI-H460) was > 100 µM (inactive), the GI50 (KM12) was > 100 µM (inactive) and the GI50 (SNB-75) was > 100 µM (inactive). For the same compound, the GI50 (HL-60) was > 100 µM (inactive), the GI50 (NCI-H226) was > 100 µM (inactive) and the GI50 (MDA-MB-231) was > 100 µM (inactive). The GI50 (OVCAR-8) was > 100 µM (inactive), the GI50 (LOX IMVI) was > 100 µM (inactive) and the GI50 (SN12C) was > 100 µM (inactive). The GI50 (SK-MEL-28) was > 100 µM (inactive), the GI50 (T47D) was > 100 µM (inactive) and the GI50 (SF-295) was > 100 µM (inactive). The GI50 (HCT-116) was > 100 µM (inactive), the GI50 (SK-OV-3) was > 100 µM (inactive) and the GI50 (MOLT-4) was > 100 µM (inactive). For the same compound, the GI50 (RPMI-8226) was > 100 µM (inactive).

N#Cc1nc2cc(Cl)ccc2nc1N1CCN(c2ccc([N+](=O)[O-])cc2)CC1 was tested, and the GI50 (MDA-MB-435) was > 100 µM (inactive), the GI50 (TK-10) was > 100 µM (inactive) and the GI50 (HCT-15) was > 100 µM. For the same compound, the GI50 (HT-29) was > 100 µM (inactive), the GI50 (DU-145) was > 100 µM (inactive) and the GI50 (CAKI-1) was > 100 µM (inactive). For the same compound, the GI50 (MDA-N) was > 100 µM (inactive), the GI50 (SW-620) was > 100 µM (inactive) and the GI50 (SK-MEL-5) was > 100 µM (inactive). For the same compound, the GI50 (UACC-257) was > 100 µM (inactive), the GI50 (HCC 2998) was 18.9 µM (inactive) and the GI50 (NCI-H23) was > 100 µM (inactive). For the same compound, the GI50 (MCF7) was > 100 µM (inactive), the GI50 (SNB-19) was > 100 µM (inactive) and the GI50 (786-0) was > 100 µM (inactive). For the same compound, the GI50 (K562) was > 100 µM (inactive), the GI50 (A549) was > 100 µM (inactive) and the GI50 (UACC-62) was > 100 µM (inactive). The GI50 (PC-3) was > 100 µM (inactive), the GI50 (SF-268) was > 100 µM (inactive) and the GI50 (EKVX) was > 100 µM (inactive). For the same compound, the GI50 (M14) was > 100 µM (inactive), the GI50 (Hs-578T) was > 100 µM (inactive) and the GI50 (OVCAR-4) was > 100 µM (inactive). For the same compound, the GI50 (SF-539) was > 100 µM (inactive), the GI50 (HOP-62) was > 100 µM (inactive) and the GI50 (UO-31) was > 100 µM (inactive). The GI50 (OVCAR-3) was > 100 µM (inactive), the GI50 (ACHN) was > 100 µM (inactive) and the GI50 (BT-549) was > 100 µM (inactive). For the same compound, the GI50 (COLO 205) was > 100 µM (inactive), the GI50 (RXF 393) was > 100 µM (inactive) and the GI50 (A498) was > 100 µM (inactive). The GI50 (NCI-H460) was > 100 µM (inactive), the GI50 (KM12) was > 100 µM (inactive) and the GI50 (NCI/ADR-RES) was > 100 µM (inactive). The GI50 (SNB-75) was > 100 µM (inactive), the GI50 (MDA-MB-231) was > 100 µM (inactive) and the GI50 (OVCAR-8) was > 100 µM (inactive). For the same compound, the GI50 (OVCAR-5) was > 100 µM (inactive), the GI50 (SN12C) was > 100 µM (inactive) and the GI50 (SK-MEL-28) was > 100 µM (inactive). The GI50 (U-251) was > 100 µM (inactive), the GI50 (T47D) was > 100 µM (inactive) and the GI50 (SF-295) was > 100 µM (inactive). For the same compound, the GI50 (HCT-116) was > 100 µM (inactive), the GI50 (SK-OV-3) was > 100 µM (inactive) and the GI50 (MOLT-4) was > 100 µM (inactive). The GI50 (RPMI-8226) was > 100 µM (inactive).
